For orientation: EC50 means the concentration needed to bring the measured effect to its halfway point.

Structures are written as SMILES.

Sequence of human DP2 (Q9Y5Y4 whole entry): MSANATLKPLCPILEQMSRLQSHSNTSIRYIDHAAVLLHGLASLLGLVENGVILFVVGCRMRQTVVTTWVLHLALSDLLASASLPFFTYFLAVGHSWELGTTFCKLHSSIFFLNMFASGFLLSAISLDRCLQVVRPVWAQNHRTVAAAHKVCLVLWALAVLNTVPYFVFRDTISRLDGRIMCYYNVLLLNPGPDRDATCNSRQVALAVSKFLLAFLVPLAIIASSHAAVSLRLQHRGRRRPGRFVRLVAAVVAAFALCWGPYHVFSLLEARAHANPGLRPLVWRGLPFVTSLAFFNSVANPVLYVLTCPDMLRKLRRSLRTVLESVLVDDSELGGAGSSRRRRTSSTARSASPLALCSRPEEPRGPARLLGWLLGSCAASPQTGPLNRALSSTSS

The first assay addresses human DP2 (Homo sapiens (Human), UniProt Q9Y5Y4). The assay can be described thus: DP-2 Binding Inhibition Assay (3H-PGD2 binding to membranes of K562 cells expressing DP2). The settings on record: EC50 (nM) 4% HSA, inhibition of 3H-PGD2 binding, 4% HSA. The method, boiled down:
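Membranes from K562 stably expressing DP2, incubated 60 min at room temperature with ³H-PGD2 and compound in Tris pH 7.4 buffer with 0.1% BSA, 1% HSA or 4% HSA; filtration read-out. Nonspecific binding: 1 μM unlabeled PGD2 or 5 μM known antagonist. EC50 from 4-parameter logistic fit.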
In the case of `COc1cc(C2CC2)ccc1CCNC(=O)c1ccc(Oc2cc3c(cc2Cl)C(C(=O)O)CCO3)cc1` (single isomer, unassigned) [235 Enantiomer 1, 6-chloro-7-(4-(4-cyclopropyl-2-methoxyphenethylcarbamoyl)phenoxy)chroman-4-carboxylic acid], the EC50 was greater than 5000 nM.

Staying with this assay, now noted: assay described in Example A.
`COc1cc(C2CC2)ccc1CCNC(=O)c1ccc(Oc2cc3c(cc2Cl)C(C(=O)O)CCO3)cc1` (single isomer, unassigned) [235 Enantiomer 1, 6-chloro-7-(4-(4-cyclopropyl-2-methoxyphenethylcarbamoyl)phenoxy)chroman-4-carboxylic acid]: the “relative activity of the enantiomers in the DP2 binding inhibition assay” value is reported as “less active than the sodium salt of Enantiomer 2”.

The same assay, now with this note: read-out: EC50 (Nm) 1% HSA; inhibition of 3H-PGD2 binding, 1% HSA.
Regarding `COc1cc(C2CC2)ccc1CCNC(=O)c1ccc(Oc2cc3c(cc2Cl)C(C(=O)O)CCO3)cc1` (stereo not drawn) [Example 36, Sodium 6-chloro-7-(4-(4-cyclopropyl-2-methoxyphenethylcarbamoyl)phenoxy)chroman-4-carboxylate], the EC50 came to 17.3 nM.
`N#Cc1cc2c(cc1Oc1ccc(C(=O)NC3COc4ccccc4C3)cc1)OCCC2C(=O)O` (stereo not drawn) [Example 52, 7-(4-(chroman-3-ylcarbamoyl)phenoxy)-6-cyanochroman-4-carboxylic acid]: the EC50 was determined as 90.8 nM.
As for `N#Cc1cc2c(cc1Oc1ccc(C(=O)NCC3(c4ccc(Cl)cc4)CC3)cc1)OCCC2C(=O)O` (stereo not drawn) [Example 219, 7-(4-((1-(4-chlorophenyl)cyclopropyl)methylcarbamoyl)phenoxy)-6-cyanochroman-4-carboxylic acid], the half-maximal effective concentration (EC50) stood at 1040 nM.

Staying with this assay, now noted: read-out: EC50 (nM) 4% HSA; inhibition of 3H-PGD2 binding, 4% HSA.
As to `O=C(NCCCCc1cccc(Cl)c1)c1ccc(Oc2cc3c(cc2Cl)C(C(=O)O)CCO3)cc1` (stereo not drawn) [Example 14, Sodium 6-chloro-7-(4-(4-(3-chlorophenyl)butylcarbamoyl)phenoxy)chroman-4-carboxylate], the concentration giving a half-maximal response (EC50) was found to be 824 nM.
For the molecule `CCOc1cc(Cl)c(Cl)cc1CCNC(=O)c1ccc(Oc2cc3c(cc2Cl)C(C(=O)O)CCO3)cc1` (stereo not drawn) [Example 201, sodium 6-chloro-7-(4-(4,5-dichloro-2-ethoxyphenethylcarbamoyl)phenoxy)chroman-4-carboxylate], the EC50 came out at 138 nM.
Still for that read-out and setting: the value for `O=C(NCCc1ccc(F)cc1Cl)c1ccc(Oc2cc3c(cc2Cl)C(C(=O)O)CCO3)cc1` (stereo not drawn) [Example 97, Sodium 6-chloro-7-(4-(2-chloro-4-fluorophenethylcarbamoyl)phenoxy)chroman-4-carboxylate] was 190 nM; that for `CC1(C)CCC(NC(=O)c2ccc(Oc3cc4c(cc3Cl)C(C(=O)O)CCO4)cc2)CC1` (stereo not drawn) [Example 157, 6-Chloro-7-(4-(4,4-dimethylcyclohexylcarbamoyl)phenoxy)chroman-4-carboxylic acid] was 1580 nM; that for `COc1cc(C2CC2)ccc1CCNC(=O)c1ccc(Oc2cc3c(cc2Cl)C(C(=O)O)CCO3)cc1` (stereo not drawn) [Example 36, Sodium 6-chloro-7-(4-(4-cyclopropyl-2-methoxyphenethylcarbamoyl)phenoxy)chroman-4-carboxylate] was 93 nM.
On the same count and under the same terms, the value for `COc1cc(F)ccc1CCNC(=O)c1ccc(Oc2cc3c(cc2Cl)C(C(=O)O)CCO3)cc1` (stereo not drawn) [Example 101, Sodium 6-chloro-7-(4-(4-fluoro-2-methoxyphenethylcarbamoyl)phenoxy)chroman-4-carboxylate] was 292 nM.
The same measure, in the same setting: for `O=C(NCCC1CCCCC1)c1ccc(Oc2cc3c(cc2Cl)C(C(=O)O)CCO3)cc1` (stereo not drawn) [Example 180, Sodium 6-chloro-7-(4-(2-cyclohexylethylcarbamoyl)phenoxy)chroman-4-carboxylate] the value was 407 nM; for `Cc1cc(Oc2cc3c(cc2Cl)C(C(=O)O)CCO3)ccc1C(=O)NCCc1ccc(Cl)cc1Cl` (stereo not drawn) [Example 183, Sodium 6-chloro-7-(4-(2,4-dichlorophenethylcarbamoyl)-3-methylphenoxy)chroman-4-carboxylate], 968 nM.
On to `O=C(NCCc1cc(F)ccc1Oc1ccc(Cl)cc1Cl)c1ccc(Oc2cc3c(cc2Cl)C(C(=O)O)CCO3)cc1` (stereo not drawn) [Example 213, sodium 6-chloro-7-(4-(2-(2,4-dichlorophenoxy)-5-fluorophenethylcarbamoyl)phenoxy)chroman-4-carboxylate], for which the 50% effective concentration (EC50) turned out to be 45.1 nM.
In the case of `Cc1ccc(-c2cccc(NC(=O)c3ccc(Oc4cc5c(cc4C#N)C(C(=O)O)CCO5)cc3)c2)cc1` (stereo not drawn) [Example 107, 6-Cyano-7-(4-(4′-methylbiphenyl-3-ylcarbamoyl)phenoxy)chroman-4-carboxylic acid], the EC50 is 115 nM.
